From patent publication US20210113523A1, “Compositions For Treating And/Or Preventing Photodynamic Therapy Side Effects” (AC BIOSCIENCE SA, priority 2018, published 2021)
Like-named read-outs stand apart in the source and are kept apart here.

How the values were obtained:
activated mast cells = assay: IL6 release from activated mast cells; format: cell-based; settings: primed mast cells activated by anti IgE, 6 hours; FIG. 2
Description: Mast cells were obtained from CD34+ progenitors cultivated during 8 weeks in the presence of stem cell factor and IL3. Some mast cells (light grey with spots) were primed during 5 days by IL4 and IgE. Primed mast cells were activated by anti IgE and IL6 release is measured 6 hours following the activation. Masitinib (Masi) a c-kit receptor inhibitor is taken as positive control. Dark grey corresponds to the basal release of IL6 in the absence of mast cells activation. Maximum release of resting mast cells were obtained by the use of a calcium ionophore.

mast cells = assay: Mast cell degranulation estimated by beta-hexosaminidase release (IgE/anti-IgE); format: cell-based; settings: 1 hour after IgE stimulation
Description: Degranulation was induced by the addition of IgE followed by the addition of anti-IgE Beta-hexosaminidase was measured 1 hour after IgE stimulation. Reference molecule was cromoglycate.

human neutrophils = assay: ROS production of PMA-activated neutrophils (chemiluminescence); format: cell-based; settings: activation by 100 ng/ml PMA; FIG. 1
Description: ROS production is measured using a chemiluminescence standard procedure: briefly, one hundred microliters of human neutrophils (4×10^6/mL) were primed with TNF-α at 37° C. for 25 minutes. 100 μL luminol (1 μM final concentration) and HRP (62.5 U/mL final concentration) in HBSS were added, and 150-μL aliquots were transferred to a prewarmed 96-well luminometer plate. Light emission was recorded by a Berthold MicroLumat Plus luminometer (Berthold Technologies, Hartfordshire, United Kingdom) (data output is in relative light units per second)

[1] = read-out: NO scavenging IC50; cited from earlier work
[2] = 10 mg/kg; cited from earlier work
[3] = read-out: 2,2-diphenyl-1-picrylhydrazyl scavenging IC50; cited from earlier work
[4] = test system: Chick Chorioallantoic Membrane (CAM) vessel network; assay: CAM vessel network following PDT irradiation; format: in vivo
Description: 5-ALA (20 mg/ml; pH=6.8) was topically applied on CAM 4 hours before PDT □ For Catechin samples, Catechin (at different concentrations: 1-30 μM) was topically applied on CAM 15 min before PDT-PDT: λ=405 nm irradiance=2.86 mW/cm2 light dose=1.2 J/cm2-10 μM Catechin has the most protective effect against PDT deleterious effect. 5-ALA: aminolevulinique acid.

[5] = 10−4 M, control without IgE 0.132
[6] = 10−5 M, control without IgE 0.135

O=C1c2c(O)cc(O)cc2O[C@H](c2ccc(O)c(O)c2)[C@H]1O [DHQ, Dihydroquercetin]
IL6 release from activated mast cells (activated mast cells): inhibitor of IL6 release | beta-hexosaminidase release (mast cells; [5]): 0.28 | beta-hexosaminidase release (mast cells; [6]): 0.52 | reactive oxygen species (ROS) production by neutrophils (human neutrophils): inhibitory effect

Oc1cc(O)cc(/C=C/c2ccc(O)cc2O)c1 [Oxyresveratrol]
IC50 [1]: 45.3 µM | brain infarct volume [2]: reducing | caspase-3 activation [2]: reducing | cytochrome c release [2]: reducing | IC50 [3]: 28.9 µM

O=C(O)c1cc(=O)c2c(OCC(O)COc3cccc4oc(C(=O)O)cc(=O)c34)cccc2o1 [Reference molecule, cromoglycate, reference compound]
beta-hexosaminidase release (mast cells; [5]): 0.34 | beta-hexosaminidase release (mast cells; [6]): 0.48

(+)Catechin
Catechin concentration at which microvessel protection is evidenced (as low as) ([4]; presence of microvessels in the CAM vasculature network, FIG. 5A): 1 µM | Catechin concentration with the most protective effect against PDT deleterious effect ([4]; topically applied on CAM 15 min before PDT, tested 1-30 μM, 5-ALA 20 mg/ml): 10 µM
